Measured values as given in patent US20100298402A1, “STILBENE DERIVATIVES AS PSTAT3/IL-6 INHIBITORS” (ORCHID RESEARCH LABORATORIES LIMITED, priority 2007, published 2010).

Key:
Assay type in all cases: cell-based
[1] = system: HCT 116 (colon), NCIH460 (lung) and U251 (glioma) cell lines; assay: Anti-cancer screen (MTT growth inhibition, 48 hours); details: Homo sapiens; HCT 116, NCIH460 and U251 cell lines; MTT after 48 hours of incubation;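 further: mean GI50 across the three cell lines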
Description: The experimental drugs were screened for anti-cancer activity in three cell lines using five concentrations for each compound. The cell lines—HCT 116 (colon), NCIH460 (lung) and U251 (glioma) were maintained in DMEM containing 10% fetal bovine serum. 96-well microtiter plates are inoculated with cells in 100 μL of cell suspension (5×10^4 cells/mL) for 24 hours at 37° C., 5% CO2, 95% air and 100% relative humidity. A separate plate with these cell lines is also inoculated to determine cell viability before the addition of the compounds (T0)
Following 24-hour incubation, test compounds were added to the 96 well plates. Each plate contains one of the above cell lines and the following samples in triplicate: five different dilutions (0.01, 0.1, 1, 10 and 100 μM) of four test compounds, appropriate dilutions of a cytotoxic standard and growth medium (untreated) wells. Test compounds were dissolved in DMSO to prepare 20 mM stock solutions on the day of drug addition and serial dilutions were carried out in complete growth medium at 2× strength, such that 100 μL added to the wells gave final concentrations (0.01, 0.1, 1, 10 and 100 μM) in the well. SAHA was used as the standard drug in these experiments.
For T0 measurement, 24 hours after seeding the cells, 20 μL of 3-(4,5-dimethyl-2-thiazolyl)-2,5-diphenyl-2H-tetrazolium (MTT) solution per well was added to the ‘T0’ plate and incubated for 3 hours at 37° C. in a CO2 incubator. The plate containing cells and test compounds was treated similarly after 48 hours of incubation. After 3 hours of MTT addition, well contents were aspirated carefully followed by addition of 150 μL DMSO per well. Plates were agitated to ensure dissolution of the formazan crystals in DMSO and absorbance was read at 570 nm (A570).
Percent growth (PG) is calculated relative to the control and zero measurement wells (T0) as follows:
PG values are plotted against drug concentration to derive the following: GI50 is the concentration required to decrease PG by 50% vs control; TGI is the concentration required to decrease PG by 100% vs control and LC50 is the concentration required to decrease PG by 50% vs T0. (Mosmann T. Rapid colorimetric assay for cellular growth and survival: application to proliferation and cytotoxicity assays. (J. Immunol. Methods. 1983, 65 (1-2), 55-63; Anne Monks et al); feasibility of high-flux anticancer drug screen using a diverse panel of cultured human tumor cell lines”. (JNCI, Vol. 83, No. 11, 1991). Results for growth inhibition of synthesized compounds are given in Table-1.

[2] = system: pSTAT3 in HEPG2 (liver cancer) cells induced by IL-6; assay: Inhibition of pSTAT3 (IL-6 induced phosphorylation of STAT3, Phospho-STAT3 (Tyr705) Sandwich ELISA); details: Homo sapiens, 4 hours compound, then IL-6 (10 ng/mL) 30 minutes
Description: The experimental drugs were tested for their effect on phosphorylation of STAT3 in HEPG2 (liver cancer) cells induced by IL-6. Test compounds were dissolved in DMSO at 20 mM and diluted in a growth medium at 2× strength. Final DMSO concentration was less than 0.5%. 100 μL of cell suspension (10×10^4 cells/mL) was added to the wells of 96 well plates and allowed to adhere for 24 hours in a CO2 incubator at 37° C. Following overnight incubation, the culture medium was replaced with 100 μL of fresh growth medium and 100 μL of test compound (s), standard (Curcumin) and growth medium (untreated) wells. The plates were incubated in CO2 incubator at 37° C. for 4 hours. After compound treatment, IL-6 (10 ng/mL) was added to the wells and incubated for 30 minutes to induce pSTAT3.
At the end of the 30 minutes incubation, cells were rinsed with ice-cold PBS and lysed with 1× Cell lysis buffer containing 1 mM PMSF (provided in the kit) on ice for 5 minutes. The cells were scraped off and transferred to an appropriate tube, sonicated on ice and centrifuged for 10 minutes at 4° C. The supernatant (cell lysate) was collected and stored at −80° C. and the levels of pSTAT3 were measured in the cell lysate by Path Scan Phospho-STAT3 (Tyr705) Sandwich ELISA kit (Cell Signaling, Cat No. 7300) by following the kit instructions.

[3] = system: IL-6 in supernatant of NCIH 460 cells; assay: Measuring IL-6 in culture supernatants (ELISA); details: Homo sapiens, NCI-H460, 5 hours incubation

COC(=O)/C(=C/c1ccc(OCC(O)CNCc2ccc(OC)cc2OC)cc1)c1ccc(F)cc1 (centres unmarked) [Example 35, 3-{4-[3-(2,4-Dimethoxybenzylamino)-2-hydroxypropoxy]phenyl}-2-(4-fluorophenyl)acrylic acid methyl ester]
GI50 [1]: 5.1 µM
inhibition at 10 µM [2]: 32.7%
inhibition at 10 µM [3]: 72.7%

COC(=O)/C(=C/c1ccc(OCC(O)CNCc2ccc(OC)cc2OC)cc1)c1ccc(C)cc1 (centres unmarked) [Example 37, 3-{4-[3-(2,4-Dimethoxybenzylamino)-2-hydroxypropoxy]phenyl}-2-(4-methylphenyl)acrylic acid methyl ester]
GI50 [1]: 6.2 µM
inhibition at 10 µM [2]: 42%
inhibition at 10 µM [3]: 68.1%

COC(=O)/C(=C/c1ccc(OCC(O)CNCCOc2ccccc2OC)cc1)c1ccc(C)cc1 (centres unmarked) [Example 38, 3-{4-[3-(2-Methoxyphenoxyethylamino)-2-hydroxypropoxy]phenyl}-2-(4-methylphenyl)acrylic acid methyl ester]
GI50 [1]: 9 µM
inhibition at 10 µM [2]: 77.2%
inhibition at 10 µM [3]: 69.1%

COC(=O)/C(=C/c1ccc(OCC(O)CNCc2ccc(OC)cc2OC)cc1)c1cccs1 (centres unmarked) [Example 40, 3-{4-[3-(2,4-Dimethoxybenzylamino)-2-hydroxypropoxy]phenyl}-2-(thiophen-2-yl)acrylic acid methyl ester]
GI50 [1]: 9.7 µM
inhibition at 10 µM [2]: 71%
inhibition at 10 µM [3]: 70.5%

COC(=O)/C(=C/c1ccccc1OCC(O)CNCc1ccccc1)c1ccc(OC)cc1 (centres unmarked) [Example 43, 3-{2-[3-(Benzylamino)-2-hydroxypropoxy]phenyl}-2-(4-methoxyphenyl)acrylic acid methyl ester]
GI50 [1]: 0.86 µM
inhibition at 10 µM [2]: 46.4%
inhibition at 10 µM [3]: 9.6%

COC(=O)/C(=C/c1ccc(OCC(O)CNCc2ccccc2)cc1)c1cccc(Cl)c1 (centres unmarked) [Example 49, 3-{4-[3-(Benzylamino)-2-hydroxypropoxy]phenyl}-2-(3-chlorophenyl)acrylic acid methyl ester]
GI50 [1]: 2.1 µM
inhibition at 10 µM [2]: 58.4%
inhibition at 10 µM [3]: 56%

COc1ccc(CNCC(O)COc2ccc(/C(=C\c3ccc(F)c(F)c3)C(N)=O)cc2)c(OC)c1 (centres unmarked) [Example 64, 2-{4-[3-(2,4-Dimethoxybenzylamino)-2-hydroxypropoxy]phenyl}-3-(3,4-difluorophenyl)acrylamide]
inhibition at 10 µM [2]: 32.2%

COc1ccccc1OCCNCC(O)COc1ccc(/C(=C\c2ccc(F)c(F)c2)C(N)=O)cc1 (centres unmarked) [Example 65, 2-{4-[3-(2-Methoxyphenoxyethylamino)-2-hydroxypropoxy]phenyl}-3-(3,4-difluorophenyl)acrylamide]
inhibition at 10 µM [2]: 0%
